The structures appear in SMILES notation.

The data set is described as follows: Human HepG2 cell viability assay in 384 well format. Format: toxicity, cell-based. Further details: dose 125 nL, time 70.5 hour; cytotoxicity at 70.5 h: concentration not given beside the values. The settings on record: HepG2 cells, read-out: Inhibition.
Turning to `Cc1ncsc1COC(=O)c1cccc2c1OCCO2`, the cytotoxicity at 70.5 h is -5.64%. With `Cc1cccc(N(CC(=O)c2ccccc2)C2=NCCCCC2)c1` the figure was -11.4%; with `CC(=O)Cc1c(C)nn(-c2cncc(N)c2)c1C`, -1.56%; with `CN(CCO)CC1COCCN1C(=O)C1CCCCC1` (centres undefined), -14.2%. Take `O=C(NCCCNc1ccc(C(F)(F)F)cn1)c1ccc(F)cc1`: the cytotoxicity at 70.5 h is -18.9%.

Take `Cc1cccc(-c2nc(N)nc3c2CN(C(=O)c2cc(C)n[nH]2)C3C)c1` (centres undefined): the cytotoxicity at 70.5 h was -13.9%.

For `CCN(CCS(=O)(=O)CC)CC1CCCO1` (centres undefined), the cytotoxicity at 70.5 h was -3.45%.

Regarding `CNCc1nc(-c2ccc3c(c2)OCO3)c[nH]1`, the cytotoxicity at 70.5 h is -13.6%. The value for `Cc1csc(CN2CC[C@H]3C[C@@H](c4nnc(C)[nH]4)O[C@@H]3C2)n1` was 0.739%; that for `COc1ccc(CCN2CC(c3nc(CSC)no3)CCC2=O)cc1` (centres undefined) was -4.88%. With `CCn1nnc2cc(C(=O)N3CCCC3Cn3cc(C)cn3)ccc21` (centres undefined) the figure was -19.4%; with `O=C(c1cccc(-c2ncc[nH]2)c1)N1CCC(N2CCCC(O)C2)CC1` (centres undefined), 4.83%. The value for `CCOc1cc(C)nc(N2CCN(C(=O)c3cn[nH]c3CC)CC2)n1` was -3.76%. In the case of `CC(C)N1CCc2ncn(C(C)C)c2C1C(=O)NCCN1CCCC1` (centres undefined), the cytotoxicity at 70.5 h was -7.38%. Consider `CN1CC(=O)N(c2cccnc2)CC12CCN(C(=O)C1CCCCC1)C2` (centres undefined), for which the cytotoxicity at 70.5 h stood at 36.1%.

On to `O=C(CCc1cccnc1)N1CCC(c2cnccn2)CC1`, for which the cytotoxicity at 70.5 h was -6.11%. With `CCN1CCOCC2(CCCN(C(=O)c3cnccn3)C2)C1` (centres undefined) the figure was -14.9%; with `Cc1ccc(C(=O)N2CC[C@H]3[C@H]2CCN3CC2CCOCC2)cc1F`, 3.15%; with `Nc1nc2c(c(NCc3ccncc3)n1)CCCC2`, 0.39%. As for `NC(=O)C1CCN(CCc2ccc(NCc3ccoc3)cc2)CC1`, the cytotoxicity at 70.5 h is -5.59%.

For the molecule `O=C(Nc1ccc(Cl)cn1)c1cncc(C2CCNCC2)n1`, the cytotoxicity at 70.5 h was -7.54%.

`COc1cc(CN2CCC(COCc3ccccc3)CC2)cc(OC)c1`: the cytotoxicity at 70.5 h was 19.3%. The value for `O=C(c1ccnnc1)N1CCCn2nnc(COCC3CC3)c2C1` was 6.34%. On to `CN(C)[C@H]1C[C@@H](Cc2cc(-c3ccc(F)cc3)on2)C1(C)C`, for which the cytotoxicity at 70.5 h is -0.292%. The value for `Cc1nn(-c2ccccc2)cc1C(=O)N1CCCC(n2cccn2)C1` (centres undefined) was -1.21%; that for `O=C1NCCN(C(=O)c2cn3ccsc3n2)C1Cc1ccccc1` (centres undefined) was -5.01%.

On to `C[C@H](NS(C)(=O)=O)C(=O)NCc1cc(-c2ccco2)n(CC(F)(F)F)n1`, for which the cytotoxicity at 70.5 h was -4.57%.

Take `CCc1c(C(=O)N2CCN(C)[C@@H]3CS(=O)(=O)C[C@@H]32)[nH]c2ccccc12`: the cytotoxicity at 70.5 h is -0.756%.

As for `CCNc1cc2c(nn1)CCN(C(=O)C1CCc3ccccc31)C2` (centres undefined), the cytotoxicity at 70.5 h is -0.738%. Consider `COc1ccccc1CN1C[C@@H](F)[C@@H](OCc2nc3cnccc3[nH]2)C1`, for which the cytotoxicity at 70.5 h was -4.23%.

For `CCN(CC)CCCNCC1CCOC(C)(C)C1` (centres undefined), the cytotoxicity at 70.5 h is -3.64%. The value for `CN(Cc1cccnc1)C1CC2(CCN(c3ccccn3)CC2)C1` was -8.74%; that for `CC(C)c1nc(-c2cc(C(=O)N3CCN(C)CC3)c3ccccn23)cs1` was 9.79%; that for `Cc1ccsc1CN1CC[C@H]2O[C@H](C(=O)N3CCCO3)CC[C@H]21` was -8.24%. Consider `Cc1ccc(-c2ccccc2CC2CNCCNC2=O)c(C)c1` (centres undefined), for which the cytotoxicity at 70.5 h was found to be 31.4%. On to `COc1cc(C)c(CN2CCC3(CC2)C(C(=O)O)CC(=O)N3C)cc1C` (centres undefined), for which the cytotoxicity at 70.5 h turned out to be 3.6%. With `COc1ccc(F)cc1S(=O)(=O)NCC(O)c1sccc1C` (centres undefined) the figure was -2.63%; with `CN(CCn1nc2ccccn2c1=O)CC(=O)NC1CC1`, -8.39%.

`CCc1cc(N(C)Cc2c(C)nn(C)c2C)n2nccc2n1`: the cytotoxicity at 70.5 h was -2.89%. The value for `CCc1n[nH]c(C2CN(C(=O)c3cnc(C)cn3)CCO2)n1` (centres undefined) was -10.6%; that for `CCOCC1CN(Cc2ccc(F)cc2)Cc2nn(C)cc21` (centres undefined) was -11.9%. The value for `Cc1nc(C)n(CC2CCCN2Cc2nc(-c3cccs3)no2)n1` (centres undefined) was -12.2%; that for `Cc1ccc(C2CN(Cc3cnc(-c4cccnc4)s3)CCO2)o1` (centres undefined) was 7.31%; that for `COc1cc(-c2nccn2CCn2cccn2)cc2c1OCO2` was -1.97%. Turning to `Cc1cc(C2CCCN(C(=O)c3c(C)nn4cccnc34)C2)n[nH]1` (centres undefined), the cytotoxicity at 70.5 h is -3.82%.

On to `c1ncc2c(n1)CN(Cc1nc(-c3ccsc3)no1)CC2`, for which the cytotoxicity at 70.5 h is -14.7%. With `CNC(=O)c1ccc2c(c1)C1(CCN(CCOC)CC1)C(=O)N2` the figure was 0.0675%; with `O=C1C[C@H]2CC[C@@H](CN1)N2C(=O)CCc1ccccc1`, -8.36%.

With `Cc1cc(C)c(CNC(=O)N2CCC(N3CCCC3)CC2)c(=O)[nH]1`, the cytotoxicity at 70.5 h is -7.61%. The value for `COCCN1CCN(Cc2cnc(C(C)C)nc2)CC1` was 16.4%; that for `Cc1csc(CN2C[C@@H]3CN(S(C)(=O)=O)CCO[C@@H]3C2)n1` was 5.33%. For `COCC(=O)N1CCC2(CC1)CNc1ccc(F)cc12`, the cytotoxicity at 70.5 h was -9.36%. The value for `CC(C)CC(=O)N1CC(=O)c2sc(NC3CCCCC3)nc2C1` was 1.17%; that for `Cn1cc(CN2CCCC23CCN(C(=O)c2ccccn2)CC3)cn1` was 18.2%; that for `CC(C)n1cnnc1CNC(=O)CCCOc1ccccc1F` was -11.9%. With `CC1CN(C)c2ccccc2CN1C(=O)c1ccncc1F` (centres undefined) the figure was 35%; with `Fc1cc(Cl)cnc1N1CCCC(c2nccn2Cc2ccncc2)C1` (centres undefined), -14%. With `Cc1noc(C)c1CN1C[C@@H]2COC[C@H](C(=O)N3CCCO3)[C@@H]2C1` the figure was 31.1%; with `CC(NCc1ccccc1Br)c1ccc2[nH]c(=O)[nH]c2c1` (centres undefined), 3.35%; with `CC(=O)NCCNC(=O)CN1CCN(Cc2nccn2C)C(C)C1` (centres undefined), -2.6%. For `O=C(c1ccncc1)N1CCCC2(CCN(c3cccnc3)C2=O)C1` (centres undefined), the cytotoxicity at 70.5 h is 0.0433%. The value for `CC(C)C(C(=O)N1CCN(Cc2ccncc2)CC1)n1cncn1` (centres undefined) was -9.68%; that for `Cc1ccc2[nH]c(C(=O)NCCCn3ccnn3)c(C)c2c1` was 22.6%; that for `CCc1noc(CNc2nc(-c3cccnc3)nc3c2CCNCC3)n1` was -14.3%. As to `O=C(CN1CCc2cncnc2C1)Nc1ccc(Cl)cn1`, the cytotoxicity at 70.5 h was 6.59%. With `c1cncc(COC[C@H]2CC[C@H]3[C@H](CCN3Cc3cccs3)O2)c1` the figure was 2.81%; with `Oc1cc(C2CCCCN2C2CCCC2)nc(-c2cccnc2)n1` (centres undefined), -7.77%; with `O=C(C[C@@H]1COC[C@H]2CN(Cc3ccccn3)C[C@@H]12)N1CCOCC1`, -2.94%. As for `c1cc(-c2noc([C@@H]3CCCN3C3CCC3)n2)cc(N2CCCC2)n1`, the cytotoxicity at 70.5 h was -6.56%.

Values taken from ChEMBL document CHEMBL3507680, “University of Dundee, Gates Library screen for HepG2 cell viability”.
